Assay results from ChEMBL document CHEMBL4251601 (Eur J Med Chem, 2018).

What was measured:
CDK1/Cyclin A = CDK1/Cyclin A (Homo sapiens, UniProt P06493); test: Inhibition of CDK1/Cyclin-A2 (unknown origin) using histone-H1 as substrate after 90 mins by ADP-Glo assay; format: protein-complex assay
Homo sapiens = organism: Homo sapiens; test: Selectivity ratio of IC50 for CDK1/Cyclin-A2 (unknown origin) to IC50 for CDK6/Cyclin-D3 (unknown origin)
[1] = target: Cyclin-dependent kinase 4/cyclin D1 (Homo sapiens, UniProt P11802); test: Inhibition of CDK4/Cyclin-D1 (unknown origin) using histone-H1 as substrate after 90 mins by ADP-Glo assay; format: protein-complex assay
Chain of Cyclin-dependent kinase 4/cyclin D1 (P11802 whole entry): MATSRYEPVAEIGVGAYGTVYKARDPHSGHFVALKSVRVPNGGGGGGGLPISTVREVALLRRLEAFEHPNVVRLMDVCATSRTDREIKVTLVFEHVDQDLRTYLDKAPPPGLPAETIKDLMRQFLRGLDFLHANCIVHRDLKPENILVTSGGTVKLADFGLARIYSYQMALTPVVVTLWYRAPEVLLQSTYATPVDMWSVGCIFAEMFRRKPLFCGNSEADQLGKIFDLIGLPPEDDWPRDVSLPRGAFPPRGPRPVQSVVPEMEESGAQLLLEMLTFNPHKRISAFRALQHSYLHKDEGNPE
Chain of Cyclin-dependent kinase 4/cyclin D1 (P24385 whole entry, further chain): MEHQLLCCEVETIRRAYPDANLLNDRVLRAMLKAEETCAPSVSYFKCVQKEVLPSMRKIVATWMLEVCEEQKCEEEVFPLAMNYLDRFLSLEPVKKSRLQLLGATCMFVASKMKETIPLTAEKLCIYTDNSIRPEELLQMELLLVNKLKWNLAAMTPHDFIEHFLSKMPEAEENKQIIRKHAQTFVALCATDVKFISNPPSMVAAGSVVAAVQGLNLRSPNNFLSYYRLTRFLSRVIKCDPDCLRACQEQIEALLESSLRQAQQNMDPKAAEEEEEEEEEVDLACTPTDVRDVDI

[2] = Clearance in Sprague-Dawley rat at 2 mg/kg, iv administered as single dose by LC-MS/MS analysis; format: ADME, organism-based; conditions: in vivo
[3] = AUC (0 to infinity) in Sprague-Dawley rat at 2 mg/kg, iv administered as single dose by LC-MS/MS analysis; format: ADME, organism-based; parameters: dose 2 mg/kg, route intravenous, time infinity; conditions: Sprague-Dawley, in vivo
[4] = Cmax in Sprague-Dawley rat at 5 mg/kg, po administered as single dose by LC-MS/MS analysis; format: ADME, organism-based; parameters: dose 5 mg/kg, route oral; conditions: in vivo
[5] = Volume of distribution at steady state in Sprague-Dawley rat at 2 mg/kg, iv administered as single dose by LC-MS/MS analysis; format: ADME, organism-based; conditions: in vivo, read-out: Vdss
[6] = AUC (0 to 24 hrs) in Sprague-Dawley rat at 5 mg/kg, po administered as single dose by LC-MS/MS analysis; format: ADME, organism-based; parameters: time < 24 hr, dose 5 mg/kg, route oral; conditions: in vivo
[7] = Oral bioavailability in Sprague-Dawley rat at 5 mg/kg administered as single dose by LC-MS/MS analysis; format: ADME, organism-based; conditions: Sprague-Dawley, in vivo
[8] = Half life in Sprague-Dawley rat at 2 mg/kg, iv administered as single dose by LC-MS/MS analysis; format: ADME, organism-based; conditions: in vivo
[9] = AUC (0 to 24 hrs) in Sprague-Dawley rat at 2 mg/kg, iv administered as single dose by LC-MS/MS analysis; format: ADME, organism-based; parameters: dose 2 mg/kg, time < 24 hr, route intravenous; conditions: in vivo
CDK6/cyclin D3 = CDK6/cyclin D3 (Homo sapiens, UniProt Q00534); test: Inhibition of CDK6/Cyclin-D3 (unknown origin) using histoneH1 as substrate after 90 mins by ADP-Glo assay; format: protein-complex assay
Chain of CDK6/cyclin D3 (P30281 whole entry): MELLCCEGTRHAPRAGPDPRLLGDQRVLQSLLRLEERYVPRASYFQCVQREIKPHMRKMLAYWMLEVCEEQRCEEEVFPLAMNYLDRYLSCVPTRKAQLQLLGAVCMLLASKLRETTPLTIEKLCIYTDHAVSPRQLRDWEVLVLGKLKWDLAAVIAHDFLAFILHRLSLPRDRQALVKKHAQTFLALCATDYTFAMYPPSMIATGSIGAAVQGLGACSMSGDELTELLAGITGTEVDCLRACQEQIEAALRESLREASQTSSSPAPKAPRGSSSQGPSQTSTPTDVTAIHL
Chain of CDK6/cyclin D3 (Q00534 whole entry): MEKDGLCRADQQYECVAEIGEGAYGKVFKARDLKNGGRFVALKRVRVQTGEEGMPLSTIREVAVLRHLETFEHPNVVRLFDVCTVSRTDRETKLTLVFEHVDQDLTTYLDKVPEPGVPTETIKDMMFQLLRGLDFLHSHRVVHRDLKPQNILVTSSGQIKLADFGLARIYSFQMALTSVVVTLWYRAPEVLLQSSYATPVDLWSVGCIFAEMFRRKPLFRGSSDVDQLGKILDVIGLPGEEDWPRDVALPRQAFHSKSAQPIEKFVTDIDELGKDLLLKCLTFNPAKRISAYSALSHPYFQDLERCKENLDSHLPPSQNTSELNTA

[10] = AUC (0 to infinity) in Sprague-Dawley rat at 5 mg/kg, po administered as single dose by LC-MS/MS analysis; format: ADME, organism-based; parameters: dose 5 mg/kg, route oral, time infinity; conditions: Sprague-Dawley, in vivo
[11] = Half life in Sprague-Dawley rat at 5 mg/kg, po administered as single dose by LC-MS/MS analysis; format: ADME, organism-based; conditions: in vivo

Chain of CDK1/Cyclin A (P06493 whole entry): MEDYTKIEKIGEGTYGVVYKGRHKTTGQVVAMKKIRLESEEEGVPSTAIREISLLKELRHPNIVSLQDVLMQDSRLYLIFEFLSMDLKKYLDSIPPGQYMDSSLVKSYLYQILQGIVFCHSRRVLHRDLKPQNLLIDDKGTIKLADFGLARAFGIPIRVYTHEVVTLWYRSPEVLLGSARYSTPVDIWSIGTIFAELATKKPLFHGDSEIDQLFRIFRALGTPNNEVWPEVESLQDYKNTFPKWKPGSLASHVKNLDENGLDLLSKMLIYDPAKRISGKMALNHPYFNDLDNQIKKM
Chain of CDK1/Cyclin A (P20248 whole entry, further chain): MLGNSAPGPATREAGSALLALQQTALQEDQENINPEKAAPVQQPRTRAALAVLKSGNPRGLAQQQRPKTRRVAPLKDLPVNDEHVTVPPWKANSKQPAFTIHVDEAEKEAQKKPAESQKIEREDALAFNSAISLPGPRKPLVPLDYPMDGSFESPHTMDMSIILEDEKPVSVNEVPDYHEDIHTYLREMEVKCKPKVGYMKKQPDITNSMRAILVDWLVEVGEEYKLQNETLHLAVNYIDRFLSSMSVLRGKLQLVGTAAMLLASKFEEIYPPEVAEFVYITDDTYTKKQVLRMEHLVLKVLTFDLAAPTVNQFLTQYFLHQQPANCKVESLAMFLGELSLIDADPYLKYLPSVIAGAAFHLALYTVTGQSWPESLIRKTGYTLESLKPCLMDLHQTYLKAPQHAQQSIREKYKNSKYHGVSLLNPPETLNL

For CC1=Nc2c(F)cc(-c3nc(Nc4ccc(N5CCNCC5)cn4)ncc3F)cc2C1(C)C, which IC50 (CDK1/Cyclin A) is on record?
Its IC50 is 2220 nM.

And the Ratio IC50 (Homo sapiens)?
Its Ratio IC50 is 52.

Which results are given for CCC1(C)C(C)=Nc2c(F)cc(-c3nc(Nc4ccc(C5CCN(C)CC5)cn4)ncc3F)cc21 (stereo not drawn)?
IC50 (CDK1/Cyclin A): 131 nM; Ratio IC50 (Homo sapiens): 14; IC50 [1]: 16 nM; clearance [2]: 77.8 mL/min/kg; AUC(0-inf) [3]: 447 ng·h/mL; Cmax [4]: 22.3 ng/mL; Vd [5]: 40.1 L/kg; AUC(0-t) at 24 h [6]: 287 ng·h/mL; bioavailability [7]: 28%; half-life [8]: 7 h; AUC(0-t) at 24 h [9]: 404 ng·h/mL; IC50 (CDK6/cyclin D3): 9 nM

Which results are given for CCN1CCC(c2ccc(Nc3ncc(F)c(-c4ccc5c(c4)C(C)(CC)C(C)=N5)n3)nc2)CC1 (stereo not drawn)?
IC50 (CDK1/Cyclin A): 125 nM; Ratio IC50 (Homo sapiens): 6; IC50 [1]: 42 nM; IC50 (CDK6/cyclin D3): 19 nM

For CCC1(C)C(C)=Nc2ccc(-c3nc(Nc4ccc(N5CCN(C)CC5)cn4)ncc3F)cc21 (stereo not drawn), which IC50 (CDK1/Cyclin A) is on record?
Its IC50 is 112 nM.

And the Ratio IC50 (Homo sapiens)?
Its Ratio IC50 is 22.

And the IC50 [1]?
Its IC50 is 35 nM.

What about the IC50 (CDK6/cyclin D3) of the same compound?
The IC50 was 5 nM.

With CCN1CCN(c2ccc(Nc3ncc(F)c(-c4cc(F)c5c(c4)C(C)(CC)C(C)=N5)n3)nc2)CC1 (stereo not drawn) as the compound, how does the IC50 (CDK1/Cyclin A) read?
Its IC50 is 65 nM.

And the Ratio IC50 (Homo sapiens)?
The Ratio IC50 was 1.

With CCN1CCN(Cc2ccc(Nc3ncc(F)c(-c4cc(F)c5c(c4)C(C)(CC)C(C)=N5)n3)nc2)CC1 (stereo not drawn) as the compound, how does the IC50 (CDK1/Cyclin A) read?
Its IC50 is 966 nM.

And the Ratio IC50 (Homo sapiens)?
The Ratio IC50 was 37.

What about the IC50 [1] of the same compound?
The IC50 was 33 nM.

What about the clearance [2] of the same compound?
Its clearance is 50.7 mL/min/kg.

What about the AUC(0-inf) [3] of the same compound?
Its AUC(0-inf) is 696 ng·h/mL.

And the Cmax [4]?
The Cmax was 58.5 ng/mL.

And the Vd [5]?
Its Vd is 25.1 L/kg.

And the AUC(0-inf) [10]?
The AUC(0-inf) was 412 ng·h/mL.

What about the AUC(0-t) at 24 h [6] of the same compound?
Its AUC(0-t) at 24 h is 403 ng·h/mL.

And the bioavailability [7]?
Its bioavailability is 23%.

What about the half-life [8] of the same compound?
Its half-life is 5.3 h.

What about the AUC(0-t) at 24 h [9] of the same compound?
The AUC(0-t) at 24 h was 685 ng·h/mL.

What about the half-life [11] of the same compound?
Its half-life is 4.7 h.

What about the IC50 (CDK6/cyclin D3) of the same compound?
The IC50 was 26 nM.

Which results are given for CC1=Nc2c(F)cc(-c3nc(Nc4ccc(C5CCNCC5)cn4)ncc3F)cc2C12CCCC2?
Ratio IC50 (Homo sapiens): 818; IC50 [1]: 8 nM; clearance [2]: 24.6 mL/min/kg; AUC(0-inf) [3]: 1370 ng·h/mL; Cmax [4]: 62.1 ng/mL; Vd [5]: 15.6 L/kg; AUC(0-t) at 24 h [6]: 867 ng·h/mL; bioavailability [7]: 29%; half-life [8]: 8.6 h; AUC(0-t) at 24 h [9]: 1200 ng·h/mL; IC50 (CDK6/cyclin D3): 0.4 nM

Which Ratio IC50 (Homo sapiens) does the source give for CCN1CCC(c2ccc(Nc3ncc(F)c(-c4cc(F)c5c(c4)C4(CCCC4)C(C)=N5)n3)nc2)CC1 here?
Its Ratio IC50 is 268.

And the IC50 [1]?
The IC50 was 6 nM.

And the clearance [2]?
Its clearance is 10.8 mL/min/kg.

What about the AUC(0-inf) [3] of the same compound?
The AUC(0-inf) was 3190 ng·h/mL.

What about the Cmax [4] of the same compound?
The Cmax was 143 ng/mL.

What about the Vd [5] of the same compound?
The Vd was 11.6 L/kg.

And the AUC(0-t) at 24 h [6]?
Its AUC(0-t) at 24 h is 1980 ng·h/mL.

And the bioavailability [7]?
The bioavailability was 35%.

And the half-life [8]?
The half-life was 13.2 h.

And the AUC(0-t) at 24 h [9]?
Its AUC(0-t) at 24 h is 2250 ng·h/mL.

What about the IC50 (CDK6/cyclin D3) of the same compound?
The IC50 was 4 nM.

Which Ratio IC50 (Homo sapiens) does the source give for CCN1CCC(c2ccc(Nc3ncc(F)c(-c4ccc5c(c4)C4(CCCC4)C(C)=N5)n3)nc2)CC1 here?
Its Ratio IC50 is 5.

For CC1=Nc2c(F)cc(-c3nc(Nc4ccc(C5CCN(CCO)CC5)cn4)ncc3F)cc2C12CCCC2, which Ratio IC50 (Homo sapiens) is on record?
Its Ratio IC50 is 352.

And the IC50 (CDK6/cyclin D3)?
The IC50 was 0.5 nM.

For CCN1CCN(Cc2ccc(Nc3ncc(F)c(-c4cc(F)c5c(c4)C(CC)(CC)C(C)=N5)n3)nc2)CC1, which Ratio IC50 (Homo sapiens) is on record?
The Ratio IC50 was 9.

Which IC50 (CDK1/Cyclin A) does the source give for CCN1CCC(c2ccc(Nc3ncc(F)c(-c4cc(F)c5c(c4)C(C)(CC)C(C)=N5)n3)nc2)CC1 (stereo not drawn) here?
The IC50 was 216 nM.

What about the Ratio IC50 (Homo sapiens) of the same compound?
The Ratio IC50 was 18.

What about the IC50 [1] of the same compound?
The IC50 was 16 nM.

What about the IC50 (CDK6/cyclin D3) of the same compound?
The IC50 was 12 nM.

What does the source list for CCC1(C)C(C)=Nc2ccc(-c3nc(Nc4ccc(C5CCNCC5)cn4)ncc3F)cc21 (stereo not drawn)?
IC50 (CDK1/Cyclin A): 166 nM; Ratio IC50 (Homo sapiens): 10; IC50 (CDK6/cyclin D3): 16 nM

For CC1=Nc2ccc(-c3nc(Nc4ccc(C5CCNCC5)cn4)ncc3F)cc2C12CCCC2, which Ratio IC50 (Homo sapiens) is on record?
Its Ratio IC50 is 7.

And the IC50 [1]?
Its IC50 is 4 nM.

What about the IC50 (CDK6/cyclin D3) of the same compound?
The IC50 was 4 nM.

Which IC50 (CDK1/Cyclin A) does the source give for CCC1(C)C(C)=Nc2c(F)cc(-c3nc(Nc4ccc(N5CCN(C)CC5)cn4)ncc3F)cc21 (stereo not drawn) here?
Its IC50 is 153 nM.

And the Ratio IC50 (Homo sapiens)?
Its Ratio IC50 is 153.

What about the IC50 [1] of the same compound?
The IC50 was 6 nM.

And the clearance [2]?
Its clearance is 69.2 mL/min/kg.

And the AUC(0-inf) [3]?
Its AUC(0-inf) is 504 ng·h/mL.

What about the Vd [5] of the same compound?
Its Vd is 6.4 L/kg.

And the half-life [8]?
Its half-life is 2.1 h.

And the AUC(0-t) at 24 h [9]?
Its AUC(0-t) at 24 h is 496 ng·h/mL.

What about the IC50 (CDK6/cyclin D3) of the same compound?
The IC50 was 1 nM.
